Measurements reported in the supplement of paper PMC8837787.
Structures can show the parent of a compound that is named as a salt.

System: Saccharomyces cerevisiae ABC16-Green Monster
Settings: 18 h; 30 °C; YPD
Procedure: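 Growth inhibition of the drug-sensitive S. cerevisiae ABC16-Green Monster strain (16 ABC transporters deleted) in YPD at 30 °C for 18 h. […] dilution series […] in biological replicates; IC50 from OD600 (18 h minus 0 h) fitted by variable-slope nonlinear regression in GraphPad Prism. Library compounds were first screened at 150 µM, and only those with at least 70% inhibition went to dose-response; the rest are marked inactive.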

| SMILES | IC50 growth inhibition |
| --- | --- |
| c1ccc(-c2nc(NC3CCCCC3)cc(C3CC3)n2)nc1 | 44.5 µM |
| O=C(Nc1nc(-c2ccccn2)cs1)c1ccccc1Br | 8.35 µM |
| CNC(=O)c1nn(C)c2c1C(C)(C)Cc1cnc(Nc3ccc(N4CCN(C)CC4)cc3)nc1-2 [milciclib maleate] | 84.1 µM |
| Cc1ccc2nc3ccccc3c(N3CCN(C(=O)c4ccccc4)CC3)c2c1 | 6.15 µM |
| Cc1ccc(N/N=C/c2c3ccccc3cc3ccccc23)cc1Cl | 14 µM |
| O=C(c1c[nH]c(-c2ccnc(N3CCCC3)c2)c1)c1ccccc1O | 60.6 µM |
| OC1=C2C(=Nc3ccccc3SC2c2cccs2)c2ccccc21 (centres undefined) [GNF-Pf-5669] | > 150 µM |
| c1csc(-c2cnc3sc(NCC4CCOCC4)nn23)c1 | 2.98 µM |
| CC(=O)OC1c2nc(cs2)C(=O)OC(CCCC(C)(Cl)Cl)C(C)C(=O)OC(C(C)(C)O)c2nc(cs2)C(=O)OC1(C)C (centres undefined) [Hectochlorin] | 0.25 µM |
| COc1ccc(Nc2nc(NCc3ccccc3)c3ccccc3n2)cc1 | 7.72 µM |
| CC1(C)OB(O)c2cc(NC(=O)c3ccc(-n4cccn4)cc3Cl)ccc21 [AN7973] | 0.355 µM |
| CC1(C)c2nc(-c3ccc(F)cc3)c(Nc3ccc(Cl)cc3)n2CCN1C(=O)CN [GNF179] | 38 µM |
| Cc1cc(C(=O)ONC(=N)c2ccccc2)nn1C(C)(C)C | 63.5 µM |
| OCCN1CCN(CCCN2c3ccccc3Sc3ccc(C(F)(F)F)cc32)CC1 [Fluphenazine] | 30.1 µM |
| CCC(C(C)O)n1ncn(-c2ccc(N3CCN(c4ccc(OCC5COC(Cn6cncn6)(c6ccc(F)cc6F)C5)cc4)CC3)cc2)c1=O (centres undefined) [Posaconazole] | 0.71 µM |
| COC1CC2CCC(C)C(O)(O2)C(=O)C(=O)N2CCCCC2C(=O)OC(C(C)CC2CCC(O)C(OC)C2)CC(=O)C(C)C=C(C)C(O)C(OC)C(=O)C(C)CC(C)C=CC=CC=C1C (centres undefined) [Rapamycin] | 0.727 µM |
| COc1cccc(-n2nnnc2S(=O)(=O)Cc2ccccc2)c1 | 16.1 µM |
| O=C(c1ccco1)N(CCCn1ccnc1)c1nc2c(Cl)cccc2s1 | 40.8 µM |
| FC(F)Sc1ccc2nc3ccccc3c(N3CCOCC3)c2c1 | 30 µM |
| Cc1ccc(-n2nc(C(C)(C)C)cc2NC(=O)NCc2cc(F)ccc2Oc2ccc3c(cnn3CCO)c2)cc1 [Pexmetinib] | > 75 µM |
| Clc1ccc(Cl)c(CO[C@H]2CCCC[C@@H]2n2ccnc2)c1 | 68.6 µM |
| COC(=O)Nc1nc2cc(C(=O)c3ccccc3)ccc2[nH]1 | 58.4 µM |
| COc1cc(-c2cc(-c3ccc(S(C)(=O)=O)cc3)cnc2N)ccc1O | 22 µM |
| CN(C)CCNc1nc2sc3c(c2c(=O)n1Cc1ccco1)CCCCC3 | 32.5 µM |
| COc1ccc(C2c3ccc4ccccc4c3Oc3ncn(CCCN(C)C)c(=N)c32)cc1 (centres undefined) | 28.9 µM |
| Cn1ncc2c(NCc3ccc(-c4ccc(Cl)cc4)o3)ncnc21 | 61.9 µM |
| COc1ccccc1NC(=O)c1ccc(NC(=O)Cn2ncc(Cl)c(Cl)c2=O)cc1 | 0.238 µM |

| SMILES | IC50 growth inhibition |
| --- | --- |
| Cc1ccc(S(=O)(=O)n2cc(-c3ccnc(N)c3)c3cc(Br)cnc32)cc1 | 6.17 µM |
| CC1=Nn2cc(-c3ccccc3)nc2SC1c1ccccc1 (centres undefined) | 64.2 µM |
| Cc1nn(C(C)(C)C)c(C)c1/C=N/OC(=O)Nc1ccc(Cl)cc1 | 39.1 µM |
| CCC(NC(=O)c1ccccc1NC(=O)c1ccc(C)cc1)C(=O)OC (centres undefined) | 31.7 µM |
| O=C1Nc2ccc(F)cc2/C1=N/NC(=S)NC1CC2C=CC1C2 (centres undefined) | 55.9 µM |
| COc1cc(C=Cc2ccc(O)cc2)cc(OC)c1 [Pterostilbene] | 29.4 µM |
| CN(C)CCC=C1c2ccccc2CCc2ccccc21 [Amitriptyline] | 56.8 µM |
| N#C/C(=N\Nc1cc(C(F)(F)F)cc(C(F)(F)F)c1)S(=O)(=O)c1cccs1 | 99 µM |
| Cc1cc(C(=O)NCCc2cccc(F)c2)c(C)n1C(C)C | 20.7 µM |
| c1cc2c(cc1C1=NNC(=NC3CC3)SC1)CCCC2 | 50.8 µM |
| Cn1ccnc1CNCCS(=O)(=O)c1cccc(Nc2ccc(-c3cccc(F)c3)cn2)c1 | 50.5 µM |
| CN1CCN(CCCN2c3ccccc3Sc3ccc(Cl)cc32)CC1 [Prochlorperazine] | 28.6 µM |
| O=C1C2=C(Nc3ccccc3SC2c2ccccc2F)c2ccccc21 (centres undefined) | 9.02 µM |
| CCN(CC)CCCC(C)Nc1ccnc2cc(Cl)ccc12 (centres undefined) [Chloroquine] | > 75 µM |
| Clc1cccc(C(c2ccc(CN3CCNCC3)cc2)n2ccnc2)c1 (centres undefined) | 28.7 µM |
| CC[C@@]1(O)C[C@H](O[C@H]2C[C@H](N(C)C)[C@H](O[C@H]3C[C@H](O)[C@H](O[C@H]4CCC(=O)[C@H](C)O4)[C@H](C)O3)[C@H](C)O2)c2c(cc3c(c2O)C(=O)c2c(O)cccc2C3=O)[C@H]1C(=O)OC [Aclarubicin] | 4.79 µM |
| COc1ccc(Oc2ccc([C@@H](C)N(C)c3ncc4c(N)nc(N)nc4n3)cc2)cc1 | 30.5 µM |
| O=C1N=c2ccccc2=C1NNC(=S)N1CCOCC1 | 16.4 µM |
| COC1C(OC(N)=O)C(O)C(Oc2ccc3c(O)c(NC(=O)c4ccc(O)c(CC=C(C)C)c4)c(=O)oc3c2C)OC1(C)C (centres undefined) [Novobiocin] | > 75 µM |
| CCC(=O)NC(c1ccccc1Cl)c1cc(Cl)c2cccnc2c1O (centres undefined) [GNF-Pf-5038] | 6.51 µM |
| CC(=O)OC1C(=O)C2(C)C(O)CC3OCC3(OC(C)=O)C2C(OC(=O)c2ccccc2)C2(O)CC(OC(=O)C(O)C(NC(=O)c3ccccc3)c3ccccc3)C(C)=C1C2(C)C (centres undefined) [Paclitaxel] | > 75 µM |
| Cc1cc(C)n(-c2ccc3c(Cl)cc(Cl)c(O)c3n2)n1 | 71.3 µM |
| CC(C)Cn1c2c(c(O)c(C(=O)Nc3ncccc3O)c1=O)CCCC2 [CBR572] | 46.9 µM |
| CCC1(O)CC2CN(CCc3c([nH]c4ccccc34)C(C(=O)OC)(c3cc4c(cc3OC)N(C)C3C(O)(C(=O)OC)C(OC(C)=O)C5(CC)C=CCN6CCC43C65)C2)C1 (centres undefined) [Vinblastine] | > 75 µM |
| O=C1c2ccccc2C2=Nc3ccccc3SC(c3ccccc3F)C12 (centres undefined) [GNF-Pf-3582] | 5.87 µM |
| C=CCc1c(C)nc2c(-c3ccccc3)cnn2c1N1CCN(CCO)CC1 | 62.8 µM |
| CC(C)c1ccc(C2C3CCc4ccccc4C3=NN2CCO)cc1 (centres undefined) | 49.9 µM |

| SMILES | IC50 growth inhibition |
| --- | --- |
| COC1CC2CCC(C)C(O)(O2)C(=O)C(=O)N2CCCCC2C(=O)OC(C(C)CC2CCC(OCCO)C(OC)C2)CC(=O)C(C)C=C(C)C(O)C(OC)C(=O)C(C)CC(C)C=CC=CC=C1C (centres undefined) [Everolimus] | 0.0415 µM |
| CN(Cc1ccc(Cl)s1)C(=O)Cn1ncc(Br)c(Br)c1=O | 24.2 µM |
| Cc1[nH]c2ccccc2c1C(c1cccs1)N1CCN(C)CC1 (centres undefined) | 35.9 µM |
| O=C(Nc1cccc(C(F)(F)F)c1)Nc1ncc([N+](=O)[O-])s1 | 52.4 µM |
| CCCCCCC(O)(c1ccc(F)cc1)C(CN1CCOCC1)c1ccccc1 (centres undefined) | 17.3 µM |
| COc1ccc(C2CC(c3cccs3)=NN2C(=O)c2ccco2)cc1OC (centres undefined) | 83.6 µM |
| Nc1ccn(C2OC(CO)C(O)C2(F)F)c(=O)n1 (centres undefined) [Gemcitabine] | > 75 µM |
| Cc1ccc(Cc2c(C)nn(-c3nc4ccccc4[nH]3)c2O)cc1 [CBR868] | 5.39 µM |
| O=C(O)[C@]1(Cc2cccc(Nc3nccs3)n2)CC[C@@H](Oc2cccc(Cl)c2F)CC1 [MK-5108] | > 75 µM |
| OCc1ccc(-c2cncc(Nc3cccc(Cl)c3)c2)cc1 | 6.31 µM |
| CCN(CC)S(=O)(=O)c1ccc(C(=O)Nc2cc(C)nn2-c2nc(C)c(C)c(=O)[nH]2)cc1 | 68.4 µM |
| COc1ccc(CN2CCN(C(c3ccc(F)cc3)c3ccc(F)cc3)CC2)c(OC)c1OC [Lomerizine] | 14.2 µM |
| CN(C(=O)c1cc2c(-c3cncnc3)cccc2[nH]1)c1ccccc1 | 26.3 µM |
| Cc1nc(C(=N)NOC(=O)c2c(-c3c(Cl)cccc3Cl)noc2C)cs1 | 21.2 µM |
| CCOC(=O)Nc1ccc(NCc2ccc(F)cc2)cc1N [Retigabine] | > 75 µM |
| COCCNCC(O)Cn1c2ccc(Cl)cc2c2cc(Cl)ccc21 (centres undefined) | 11 µM |
| CCCCc1oc2ccccc2c1C(=O)c1cc(I)c(OCCN(CC)CC)c(I)c1 [Amiodarone] | 5.72 µM |
| CN(C)c1oc(-c2ccc(Cl)cc2Cl)nc1[P+](c1ccccc1)(c1ccccc1)c1ccccc1 [GNF-Pf-2545] | 4.53 µM |
| CCCc1cc(N2CCN(C)CC2)n2ncc(-c3ccccc3)c2n1 | 47 µM |
| COC1OC2OC3(C)CCC4C(C)CCC(C1C)C24OO3 (centres undefined) [Artemether] | 70.6 µM |
| COC1=C2CC(C)CC(OC)C(O)C(C)C=C(C)C(OC(N)=O)C(OC)C=CC=C(C)C(=O)NC(=CC1=O)C2=O (centres undefined) [Geldanamycin] | > 75 µM |
| CCN(CC)C(=S)SSC(=S)N(CC)CC [Disulfiram] | 52.9 µM |
| CN1CC(C(=O)NC2(C)OC3(O)C4CCCN4C(=O)C(Cc4ccccc4)N3C2=O)CC2c3cccc4[nH]cc(c34)CC21 (centres undefined) [Dihydroergotamine] | > 75 µM |
| CC(Oc1ccc(Cl)cc1Cl)c1nc(-c2ccc(NC(=O)c3ccco3)cc2)no1 (centres undefined) [GNF-Pf-3333] | 2.8 µM |
| NC(=O)NO [Hydroxyurea] | > 75 µM |
